These are literature values, as cited in patent US20260015669A1, “COMPOSITIONS AND METHODS FOR DETECTING AND TREATING TUMORS AND/OR CANCERS ASSOCIATED WITH BRAF AND/OR MAP2K1 VARIANTS” (North Carolina State University, priority 2022, published 2026).

Series [1] concerns ΔNVTAP mutants. The conditions noted are these: human cancer cell lines; RAF dimer inhibitors target the αC-in/DFG-out conformation.
Series [2] has as its target ΔNVTAP mutants (Homo sapiens, UniProt P15056, DEL486-490). The settings on record: human cancer cell lines; in contrast to V600E mutants; inhibitors target the αC-out/DFG-in conformation.

Chain of ΔNVTAP mutants (Homo sapiens, UniProt P15056, DEL486-490) (P15056 with tags, fused parts or gaps DEL486-490): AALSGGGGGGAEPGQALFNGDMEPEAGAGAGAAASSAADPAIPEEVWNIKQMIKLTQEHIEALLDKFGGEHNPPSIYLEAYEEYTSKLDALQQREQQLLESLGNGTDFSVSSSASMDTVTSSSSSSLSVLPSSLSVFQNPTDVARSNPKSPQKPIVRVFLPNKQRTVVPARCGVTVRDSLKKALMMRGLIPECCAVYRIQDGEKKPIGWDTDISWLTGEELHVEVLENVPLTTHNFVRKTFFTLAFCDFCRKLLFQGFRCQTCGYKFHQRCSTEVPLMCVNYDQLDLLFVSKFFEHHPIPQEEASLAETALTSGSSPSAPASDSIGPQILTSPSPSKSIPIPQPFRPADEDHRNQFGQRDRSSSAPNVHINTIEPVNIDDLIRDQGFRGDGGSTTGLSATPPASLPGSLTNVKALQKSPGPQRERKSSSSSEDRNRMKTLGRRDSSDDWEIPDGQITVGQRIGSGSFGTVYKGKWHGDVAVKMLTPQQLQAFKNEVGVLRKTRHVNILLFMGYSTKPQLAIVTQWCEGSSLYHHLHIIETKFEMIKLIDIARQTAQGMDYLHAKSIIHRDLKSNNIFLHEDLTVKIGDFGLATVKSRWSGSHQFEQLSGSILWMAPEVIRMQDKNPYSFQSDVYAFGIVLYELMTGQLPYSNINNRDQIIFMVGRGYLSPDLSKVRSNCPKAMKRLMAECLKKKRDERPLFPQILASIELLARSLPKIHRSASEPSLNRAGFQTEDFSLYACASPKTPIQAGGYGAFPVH

As for `CNc1ncc2cc(-c3cc(NC(=O)NCCC(C)(C)C)c(F)cc3C)c(C)nc2n1` [LY3009120], in series [1], the “response of mutants with exon 12 in-frame deletions to pan-RAF dimer inhibitors and allosteric MEK inhibitors” value is “susceptible”.

Consider `O=C(c1ccc(F)c(F)c1Nc1ccc(I)cc1F)N1CC(O)([C@@H]2CCCCN2)C1` [cobimetinib], for which the “response of mutants with exon 12 in-frame deletions to pan-RAF dimer inhibitors and allosteric MEK inhibitors” value in series [1] was “susceptible”.

With `CC(C)(C)c1nc(-c2cccc(NS(=O)(=O)c3c(F)cccc3F)c2F)c(-c2ccnc(N)n2)s1` [dabrafenib], the “response of ΔNVTAP mutants to BRAF monomer inhibitors” value in series [2] was “resistant”.

For `Cc1ccc(NC(=O)c2cccc(C(C)(C)C#N)c2)cc1Nc1ccc2ncn(C)c(=O)c2c1` [AZ628], in series [1], the “response of mutants with exon 12 in-frame deletions to pan-RAF dimer inhibitors and allosteric MEK inhibitors” value is given as “susceptible”.
